“And” between values parts separate entries of the source, which are not always exact repeats. Identical values can stand only once.
Test system: Staphylococcus epidermidis (ATCC 12228)
Assay: Bacterial viability assay with Bovine Serum, HOCl and salt controls (Table 30)
Type: cell-based
Details: 200 ppm Hypochlorous acid, 5 minutes
Method: Stock cultures of pathogenic bacteria Staphylococcus epidermidis (ATCC 12228) were prepared as described in Example 3. The final numeration count uses aliquot volume, count obtained on TSA plate and the total original volume of culture. The remaining amount in the tube was used to inoculate actual test samples. Samples from each composition tested were set up with Bovine Serum as follows: 1) Assays with serum contained 100 μL of pathogenic bacteria suspension, 500 μL of Bovine Serum and 9400 μL of one of the composition formulations shown in Table 29; 2) HOCl control assays contained 100 μL of pathogen bacteria suspension, 500 μL of Bovine Serum and 9400 μL of 350 ppm, 200 ppm, 100 ppm or 50 ppm Hypochlorous acid; 3) Salt control assays contained 100 μL of pathogen bacteria suspension, 500 μL of Bovine Serum and 9400 μL of 140 ppm, 80 ppm, 40 ppm or 20 ppm each of Copper (II) chloride, Iron (II) chloride and zinc chloride or each of Copper (II) chloride, Iron (III) chloride and zinc chloride; and 4) Negative control assays contained 100 μL of pathogen bacteria suspension, 500 μL of Bovine Serum and 9400 μL of sterile water. Samples were exposed for five (5) minutes at which point a neutralizing agent was used to inhibit the activity of the microbial agent being tested. […] The presence of viable bacteria was then measured by counting the number of colonies observed on the agar medium.

Question: How did the “Log Growth Reduction, HOCl Control” value turn out when Hypochlorous acid [HOCl Control] was run?
Answer: 3.03 log and 3.00 log
